Legend:
[1] = tested on: volatile fatty acid concentrations in the in vitro rumen fermentation; assay: in vitro rumen fermentation, volatile fatty acids, high concentrate substrate, alfalfa hay:concentrate 1:3 (Examples 4 and 7); set-up: species or system sheep; conditions: for Acetic acid / Acetic:propionic / Butyric acid / Propionic acid / Total acids: hay:concentrate 1:3
Method: A one gram sample of substrate ground through a 1 mm screen is weighed into 100 ml. lipless beakers equipped with gas-release valves. The substrate consists of alfalfa hay containing approximately 16% protein and a concentrate containing ground corn 60.7%, alfalfa meal 17.5%, molasses 10.0%, soybean meal 5.3%, wheat bran 5.0%, trace mineralized salt 1.0%, limestone 0.5% and Vitamin D 300,000 I.U./ton, mixed in the proportion 3:1. The experimental composition is added to the substrate. 25 ml. of filtered rumen fluid obtained from fasted sheep maintained on feed the same as the above mentioned substrate and 25 ml. of McDougal's buffer solution serve as the inoculum. The buffer solution is as follows:
The fermentation mixture is flushed with carbon dioxide and the vessel is capped with a gas release valve. The fermentation vessel (beaker) is placed in a water bath and incubated at 39° C.±1° for six hours. The sample is mixed every hour by shaking the beaker.
At the end of the 6-hour fermentation period the sample is strained through 4 layers of cheesecloth into a sample bottle containing 1 ml. saturated solution of mercuric chloride. The sample is frozen immediately until analyzed for the volatile fatty acids (VFA) (mg/100 ml.). Prior to analysis, each sample is acidified with 30% phosphoric acid and then analyzed by gas chromatography using a column containing 5% nonylphenoxypolyoxyethylene ethanol plus 0.5% phosphoric acid on 100-120 mesh Gas Chrom S. The acids determined are acetic, propionic, butyric, isobutyric, valeric and isovaleric acids. Total VFA is considered as the addition of these acids. The ratio of acetic: propionic (A:P) is obtained by dividing the concentration of acetic acid by that of propionic acid.
The procedure is described in Example 3. In this example, however, the substrate consisted of alfalfa hay and concentrate in the ratio of 1:3 and inoculum was obtained from sheep fed alfalfa and concentrate in the ratio of 1:3. The concentrate (Fit-N-Fresh) is commercially available from Agway, Inc. and contains grain products, plant protein products, processed grain by-products, cane molasses, minerals, vitamins and a preservative.
The 2,2,2-trichloroethyl ester of glycine was tested in vitro in a manner similar to that described in Example 4.

[2] = tested on: volatile fatty acid concentrations in fistulated sheep; assay: volatile fatty acid concentrations in vivo in fistulated sheep, 227 g concentrate and 680 g alfalfa hay (Examples 5 and 8); conditions: for Acetic:propionic ratio / Other acids (%) / Butyric acid (%) / Propionic acid (%) / Acetic acid (%) / Total acids: day 7
Text: Mature sheep (wethers) fitted with permanent rumen fistulae were used to determine the effect of L-phenylalanine, 2,2,2-trichloroethyl ester on volatile fatty acid concentrations in vivo (3 wethers per treatment). The animals were individually penned and fed 227 g. of concentrate (described in Example 3) and 680 g. of alfalfa hay once daily. The test compound was admixed with the concentrate. The sheep were medicated for 7 days. Samples for analysis were obtained before (Day 0) and after treatment (Day 7) approximately 6 hours after feeding.

`Br.N[C@@H](Cc1ccccc1)C(=O)OCC(Cl)(Cl)Cl` [L-Phenylalanine 2,2,2-trichloroethyl ester, hydrobromide] was tested, and the Acetic acid ([1]; 0.02 mg/ml) was 80 % of control, the “Acetic:propionic” value ([1]; 0.02 mg/ml) was 69 % of control and the Butyric acid ([1]; 0.02 mg/ml) was 114 % of control. For the same compound, the Propionic acid ([1]; 0.02 mg/ml) was 116 % of control, the Total acids ([1]; 0.02 mg/ml) was 95 % of control and the Acetic acid ([1]; 0.1 mg/ml) was 76 % of control. For the same compound, the “Acetic:propionic” value ([1]; 0.1 mg/ml) was 66 % of control, the Butyric acid ([1]; 0.1 mg/ml) was 113 % of control and the Propionic acid ([1]; 0.1 mg/ml) was 115 % of control. For the same compound, the Total acids ([1]; 0.1 mg/ml) was 92 % of control, the Acetic acid ([1]; 0.2 mg/ml) was 76 % of control and the “Acetic:propionic” value ([1]; 0.2 mg/ml) was 65 % of control. The Butyric acid ([1]; 0.2 mg/ml) was 113 % of control, the Propionic acid ([1]; 0.2 mg/ml) was 116 % of control and the Total acids ([1]; 0.2 mg/ml) was 92 % of control. For the same compound, the Acetic acid ([1]; 0.4 mg/ml) was 79 % of control, the “Acetic:propionic” value ([1]; 0.4 mg/ml) was 65 % of control and the Butyric acid ([1]; 0.4 mg/ml) was 116 % of control. The Propionic acid ([1]; 0.4 mg/ml) was 120 % of control, the Total acids ([1]; 0.4 mg/ml) was 96 % of control and the Acetic acid ([1]; 1.0 mg/ml) was 76 % of control. For the same compound, the “Acetic:propionic” value ([1]; 1.0 mg/ml) was 64 % of control, the Butyric acid ([1]; 1.0 mg/ml) was 112 % of control and the Propionic acid ([1]; 1.0 mg/ml) was 119 % of control. The Total acids ([1]; 1.0 mg/ml) was 92 % of control, the “effect on acetic:propionic ratio (in words)” value ([1]; high concentrate substrate) was “decreasing the acetic:propionic ratio” and the “effect on propionic acid concentration (in words)” value ([1]; high concentrate substrate) was “effective in increasing the propionic acid concentration”. The “Acetic:propionic ratio” value ([2]; 200 mg/head/day, pretreatment 3.52, control day 7 3.56) was 3.11, the “Other acids (%)” value ([2]; 200 mg/head/day, pretreatment 5.4, control day 7 5.5) was 5.8% and the “Butyric acid (%)” value ([2]; 200 mg/head/day, pretreatment 12.8, control day 7 15.5) was 15.1%. For the same compound, the “Propionic acid (%)” value ([2]; 200 mg/head/day, pretreatment 18.2, control day 7 17.4) was 19.3%, the “Acetic acid (%)” value ([2]; 200 mg/head/day, pretreatment 63.7, control day 7 61.6) was 59.7% and the Total acids ([2]; 200 mg/head/day, pretreatment 657, control day 7 698) was 667 mg/100 ml. The “Acetic:propionic ratio” value ([2]; 500 mg/head/day, pretreatment 3.39, control day 7 3.56) was 2.43, the “Other acids (%)” value ([2]; 500 mg/head/day, pretreatment 5.7, control day 7 5.5) was 8.1% and the “Butyric acid (%)” value ([2]; 500 mg/head/day, pretreatment 12.7, control day 7 15.5) was 18.0%. The “Propionic acid (%)” value ([2]; 500 mg/head/day, pretreatment 18.6, control day 7 17.4) was 21.5%, the “Acetic acid (%)” value ([2]; 500 mg/head/day, pretreatment 63.1, control day 7 61.6) was 52.5% and the Total acids ([2]; 500 mg/head/day, pretreatment 614, control day 7 698) was 624 mg/100 ml. The “effect on acetic:propionic ratio (in words)” value ([2]; fistulated sheep, 7 days) was “decreased the acetic:propionic ratio” and the “effect on proportion of propionic acid (in words)” value ([2]; fistulated sheep, 7 days) was “increased the proportion of propionic acid”.
